Laboratory results: the supplement of paper PMC4862054

What was measured:
Assay in all cases: normalised viability (% of control), CellTiter-Blue; higher = more viable cells (about 100 = DMSO control)
Details in all cases: incubation time: 72 h
BT-474 = system: BT-474
Procedure: (§1)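 DSRT, CellTiter-Blue viability, 72 h incubation. Signal is normalised to DMSO and benzethonium chloride controls. Value is the normalised response at dose 3.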

BT-549 [1] = system: BT-549
Procedure: as §1

CAL-120 [2] = system: CAL-120
Procedure: as §1

CAL-148 [3] = system: CAL-148
Procedure: as §1

CAL-51 = system: CAL-51
Procedure: as §1

CAL-85-1 [4] = system: CAL-85-1
Procedure: as §1

DU-4475 = system: DU-4475
Procedure: as §1

HCC1143 = system: HCC1143
Procedure: as §1

HCC1599 = system: HCC1599
Procedure: as §1

HCC1937 = system: HCC1937
Procedure: as §1

HDQ-P1 = system: HDQ-P1
Procedure: as §1

Hs578T [5] = system: Hs578T
Procedure: as §1

MDA-MB-231 = system: MDA-MB-231
Procedure: as §1

MDA-MB-436 [6] = system: MDA-MB-436
Procedure: as §1

MDA-MB-453 [7] = system: MDA-MB-453
Procedure: as §1

MDA-MB-468 = system: MDA-MB-468
Procedure: as §1

MFM-223 [8] = system: MFM-223
Procedure: as §1

SK-BR-3 [9] = system: SK-BR-3
Procedure: as §1

BT-549 [10] = system: BT-549; remark: listed apart in the source
In short: (§2)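 Compound dissolved in 5 µl medium was pre-loaded into 384-well plates, and breast cancer cell lines in 20 µl suspension were seeded on top and incubated 72 h. After adding 2.5 µl CellTiter-Blue reagent for 2 h at 37 °C, fluorescence was read at 560/590 nm. Plates were normalised to vehicle (100) and a positive kill control (0), with Z'-factor quality control. Each value is normalised viability at a single listed concentration from the series.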

CAL-120 [11] = system: CAL-120; remark: listed apart in the source
In short: as §2

CAL-148 [12] = system: CAL-148; remark: listed apart in the source
In short: as §2

CAL-85-1 [13] = system: CAL-85-1; remark: listed apart in the source
In short: as §2

Hs578T [14] = system: Hs578T; remark: listed apart in the source
In short: as §2

MDA-MB-436 [15] = system: MDA-MB-436; remark: listed apart in the source
In short: as §2

MDA-MB-453 [16] = system: MDA-MB-453; remark: listed apart in the source
In short: as §2

MFM-223 [17] = system: MFM-223; remark: listed apart in the source
In short: as §2

SK-BR-3 [18] = system: SK-BR-3; remark: listed apart in the source
In short: as §2

Cc1cc(Nc2nc(N[C@@H](C)c3ncc(F)cn3)ncc2Cl)[nH]n1 [AZD1480]
Details | normalised viability [%]
BT-474, 10 nM | 124
BT-549 [1], 10 nM | 94.3
BT-549 [10], 1 nM | 91.7
BT-549 [10], 100 nM | 108
BT-549 [10], 1000 nM | 90.4
CAL-51, 1 nM | 112
CAL-85-1 [4], 1 nM | 106
CAL-85-1 [13], 0.3 nM | 102
CAL-85-1 [13], 3 nM | 91.4
CAL-85-1 [13], 10 nM | 96.4
CAL-120 [2], 10 nM | 96.9
CAL-120 [11], 1 nM | 87.9
CAL-120 [11], 100 nM | 90.6
CAL-120 [11], 1000 nM | 72.1
CAL-148 [3], 1 nM | 88.9
CAL-148 [12], 0.3 nM | 93.8
CAL-148 [12], 3 nM | 97.4
CAL-148 [12], 10 nM | 99.3
DU-4475, 1 nM | 98.2
HCC1143, 10 nM | 87.5
HCC1599, 10 nM | 109
HCC1937, 10 nM | 100
HDQ-P1, 1 nM | 110
Hs578T [5], 10 nM | 90.8
Hs578T [14], 1 nM | 145
Hs578T [14], 100 nM | 102
Hs578T [14], 1000 nM | 80.4
MDA-MB-231, 10 nM | 98.1
MDA-MB-436 [6], 10 nM | 135
MDA-MB-436 [15], 1 nM | 109
MDA-MB-436 [15], 100 nM | 96.4
MDA-MB-436 [15], 1000 nM | 125
MDA-MB-453 [7], 1 nM | 108
MDA-MB-453 [16], 0.3 nM | 120
MDA-MB-453 [16], 3 nM | 95.6
MDA-MB-453 [16], 10 nM | 110
MDA-MB-468, 10 nM | 105
MFM-223 [8], 10 nM | 89.8
MFM-223 [17], 1 nM | 92.1
MFM-223 [17], 100 nM | 60.8
MFM-223 [17], 1000 nM | 46.2
SK-BR-3 [9], 10 nM | 132
SK-BR-3 [18], 1 nM | 108
SK-BR-3 [18], 100 nM | 126
SK-BR-3 [18], 1000 nM | 102

CC1(C)CCC(c2ccc(Cl)cc2)=C(CN2CCN(c3ccc(C(=O)NS(=O)(=O)c4ccc(N[C@H](CCN5CCOCC5)CSc5ccccc5)c(S(=O)(=O)C(F)(F)F)c4)cc3)CC2)C1 [Navitoclax]
Details | normalised viability [%]
BT-474, 100 nM | 97.3
BT-549 [1], 100 nM | 97.2
BT-549 [10], 10 nM | 80.7
BT-549 [10], 1000 nM | 79.7
BT-549 [10], 10000 nM | 78.1
CAL-51, 10 nM | 105
CAL-85-1 [4], 10 nM | 88.2
CAL-85-1 [13], 3 nM | 84.1
CAL-85-1 [13], 30 nM | 81.1
CAL-85-1 [13], 100 nM | 85.3
CAL-120 [2], 100 nM | 61.3
CAL-120 [11], 10 nM | 69.9
CAL-120 [11], 1000 nM | 64.7
CAL-120 [11], 10000 nM | 30.5
CAL-148 [3], 10 nM | 87
CAL-148 [12], 3 nM | 85.1
CAL-148 [12], 30 nM | 88.2
CAL-148 [12], 100 nM | 89.2
DU-4475, 10 nM | 86.9
HCC1143, 100 nM | 75.3
HCC1599, 100 nM | 93.5
HCC1937, 100 nM | 96.3
HDQ-P1, 10 nM | 87.4
Hs578T [5], 100 nM | 78.2
Hs578T [14], 10 nM | 91.8
Hs578T [14], 1000 nM | 92.2
Hs578T [14], 10000 nM | 88.8
MDA-MB-231, 100 nM | 71.9
MDA-MB-436 [6], 100 nM | 89.2
MDA-MB-436 [15], 10 nM | 76.2
MDA-MB-436 [15], 1000 nM | 98.7
MDA-MB-436 [15], 10000 nM | 71.7
MDA-MB-453 [7], 10 nM | 84.3
MDA-MB-453 [16], 3 nM | 104
MDA-MB-453 [16], 30 nM | 88.5
MDA-MB-453 [16], 100 nM | 74.9
MDA-MB-468, 100 nM | 84.2
MFM-223 [8], 100 nM | 75.5
MFM-223 [17], 10 nM | 77.2
MFM-223 [17], 1000 nM | 68.7
MFM-223 [17], 10000 nM | 40.6
SK-BR-3 [9], 100 nM | 58.8
SK-BR-3 [18], 10 nM | 83.8
SK-BR-3 [18], 1000 nM | 86
SK-BR-3 [18], 10000 nM | 73.2

C=CCN(/C=C1/C(=O)O[C@H](COC)[C@@]2(C)C1=C(O)C(=O)C1=C2[C@H](OC(C)=O)C[C@]2(C)C(=O)CC[C@@H]12)CC=C [PX-866]
Details | normalised viability [%]
BT-474, 100 nM | 118
BT-549 [1], 100 nM | 98.4
BT-549 [10], 10 nM | 87.8
BT-549 [10], 1000 nM | 81.9
BT-549 [10], 10000 nM | 57
CAL-51, 10 nM | 110
CAL-85-1 [4], 10 nM | 104
CAL-85-1 [13], 3 nM | 111
CAL-85-1 [13], 30 nM | 97.4
CAL-85-1 [13], 100 nM | 102
CAL-120 [2], 100 nM | 108
CAL-120 [11], 10 nM | 94.4
CAL-120 [11], 1000 nM | 85.9
CAL-120 [11], 10000 nM | 71.3
CAL-148 [3], 10 nM | 100
CAL-148 [12], 3 nM | 97.2
CAL-148 [12], 30 nM | 105
CAL-148 [12], 100 nM | 107
DU-4475, 10 nM | 97
HCC1143, 100 nM | 99.2
HCC1599, 100 nM | 112
HCC1937, 100 nM | 99
HDQ-P1, 10 nM | 109
Hs578T [5], 100 nM | 81
Hs578T [14], 10 nM | 120
Hs578T [14], 1000 nM | 89.4
Hs578T [14], 10000 nM | 40.1
MDA-MB-231, 100 nM | 97.8
MDA-MB-436 [6], 100 nM | 102
MDA-MB-436 [15], 10 nM | 93.3
MDA-MB-436 [15], 1000 nM | 90.2
MDA-MB-436 [15], 10000 nM | 62
MDA-MB-453 [7], 10 nM | 99.3
MDA-MB-453 [16], 3 nM | 128
MDA-MB-453 [16], 30 nM | 95.7
MDA-MB-453 [16], 100 nM | 98.9
MDA-MB-468, 100 nM | 90.2
MFM-223 [8], 100 nM | 95.2
MFM-223 [17], 10 nM | 86.5
MFM-223 [17], 1000 nM | 96.9
MFM-223 [17], 10000 nM | 95.9
SK-BR-3 [9], 100 nM | 78.1
SK-BR-3 [18], 10 nM | 109
SK-BR-3 [18], 1000 nM | 61.7
SK-BR-3 [18], 10000 nM | 28.5

CN(Cc1cnc2nc(N)nc(N)c2n1)c1ccc(C(=O)N[C@@H](CCC(=O)O)C(=O)O)cc1 [Methotrexate]
Details | normalised viability [%]
BT-474, 100 nM | 124
BT-549 [1], 100 nM | 87.2
BT-549 [10], 10 nM | 91.4
BT-549 [10], 1000 nM | 78.6
BT-549 [10], 10000 nM | 95.7
CAL-51, 10 nM | 107
CAL-85-1 [4], 10 nM | 104
CAL-85-1 [13], 3 nM | 98.5
CAL-85-1 [13], 30 nM | 84
CAL-85-1 [13], 100 nM | 78
CAL-120 [2], 100 nM | 50.4
CAL-120 [11], 10 nM | 85.2
CAL-120 [11], 1000 nM | 46.9
CAL-120 [11], 10000 nM | 55
CAL-148 [3], 10 nM | 105
CAL-148 [12], 3 nM | 99.8
CAL-148 [12], 30 nM | 91.5
CAL-148 [12], 100 nM | 67.3
DU-4475, 10 nM | 122
HCC1143, 100 nM | 69.3
HCC1599, 100 nM | 106
HCC1937, 100 nM | 96.2
HDQ-P1, 10 nM | 95.7
Hs578T [5], 100 nM | 78.6
Hs578T [14], 10 nM | 106
Hs578T [14], 1000 nM | 86.5
Hs578T [14], 10000 nM | 79.4
MDA-MB-231, 100 nM | 85.9
MDA-MB-436 [6], 100 nM | 80.7
MDA-MB-436 [15], 10 nM | 111
MDA-MB-436 [15], 1000 nM | 64.4
MDA-MB-436 [15], 10000 nM | 93.6
MDA-MB-453 [7], 10 nM | 122
MDA-MB-453 [16], 3 nM | 108
MDA-MB-453 [16], 30 nM | 102
MDA-MB-453 [16], 100 nM | 90.7
MDA-MB-468, 100 nM | 46.3
MFM-223 [8], 100 nM | 98.2
MFM-223 [17], 10 nM | 108
MFM-223 [17], 1000 nM | 107
MFM-223 [17], 10000 nM | 100
SK-BR-3 [9], 100 nM | 49
SK-BR-3 [18], 10 nM | 95.9
SK-BR-3 [18], 1000 nM | 52
SK-BR-3 [18], 10000 nM | 52.8
